Laboratory results taken from patent US10189845B2, “4,6-substituted-pyrazolo[1,5-a]pyrazines as janus kinase inhibitors” (ARRAY BIOPHARMA INC., priority 2014, dated 2019).
Like-named read-outs stand apart in the source and are kept apart here.

Legend:
Type in all cases: biochemical
JAK2 = JAK2 (Homo sapiens (Human), UniProt O60674); experiment: JAK2 Inhibition Assay (Example C, Omnia kinase fluorescence peptide substrate assay); settings: JAK2 Enzyme IC50 1 mM ATP, averaged IC50 ranges
Excerpt: (§1) The assays described in Examples A, B, C and D for the determination of Tyk2, JAK1, JAK2 and JAK3 kinase activity, respectively, utilized the Omnia® Kinase fluorescence peptide substrate-based technology (Invitrogen). The specific components of the assay mixture are described in Examples A, B, C and D. In these assays, Mg^2+ is chelated upon phosphorylation of the Omnia peptide by the kinase to form a bridge between the chelation-enhanced fluorophore Sox and the phosphate, resulting in an increase in fluorescence emission at 485 nm when excited at […]. The reactions were therefore read at excitation 360 nm and emission was measured at 485 nm every 50 seconds for 45 minutes using a PerkinElmer EnVision Multilabel Plate Reader.
(§2) The final buffer conditions for Tyk2, JAK1, JAK2, and JAK3 assays were as follows: 25 mM HEPES, pH 7.4, 10 mM MgCl2, 0.01% Triton X-100 and 1 mM DTT.
(§3) Two-μL aliquots of these were transferred to a fresh plate for a ten-fold intermediate dilution with assay buffer. Five-μL aliquots of the diluted compounds were then transferred to 20-μL of assay mixtures described in Examples A, B, C and D for a final concentration of DMSO of 2%. […] For each plate, percent of control (POC) values were calculated for each well according to the following equation: […]
(§4) IC50's were estimated from the POC's using a standard 4-parameter logistic model:
(§5) The IC50 is defined as the concentration of inhibitor at which the POC equals 50 for the fitted curve.
(§6) Compounds of Formula I were screened for their ability to inhibit JAK2 using the general enzyme inhibition assay method, in which the assay mixture contained 1 mM ATP, 10 μM Omnia® Y7 peptide (Catalog # IVGN KNZ3071C, Invitrogen Corporation, Carlsbad, Calif.) and 4 nM JAK2 in a total volume of 25 μL. JAK2 was purchased from Invitrogen Corporation, Carlsbad, Calif. (catalog # IVGN PV4288).

JAK1 = JAK1 (Homo sapiens (Human), UniProt P23458); experiment: JAK1 Inhibition Assay (Example B, Omnia kinase fluorescence peptide substrate assay)
Excerpt: as §1, §2, §3, §4, §5
as §6, with “JAK1” for “JAK2”, “8” for “10”, “Y12” for “Y7”, “KPZ3121C;” for “KNZ3071C,”, “12.5” for “4”, “PV4775).” for “PV4288).”

JAK3 = JAK3 (Homo sapiens (Human), UniProt P52333); experiment: JAK3 Inhibition Assay (Example D, Omnia kinase fluorescence peptide substrate assay)
Excerpt: as §1, §2, §3, §4, §5
as §6, with “JAK3” for “JAK2”, “2” for “4”, “PV4080).” for “PV4288).”

Human Tyk2 kinase domain = Human Tyk2 kinase domain (Homo sapiens (Human), UniProt P29597); experiment: Tyk2 Inhibition Assay (Example A, Omnia kinase fluorescence peptide substrate assay); settings: TYK2 Enzyme IC50 1 mM ATP, averaged IC50 ranges
Excerpt: as §1, §2, §3, §4, §5
Compounds of Formula I were screened for their ability to inhibit Tyk2 using the general enzyme inhibition assay method, in which the assay mixture contained 1 mM ATP, 8 μM Omnia Y12 peptide (Catalog # IVGN KPZ3121C; Invitrogen Corporation, Carlsbad, Calif.) and 1 nM Tyk2 in a total volume of 25 μL. Human Tyk2 kinase domain, comprising amino acids 886 to 1187 with 10 additional histidine residues (histidine tag) on the carboxy terminus, was expressed and purified from bacculovirus in-house at Array BioPharma Inc. (Boulder, Colo.). The histidine tag was cleaved after purification using standard conditions.

[1] = JAK1 Enzyme IC50 1 mM ATP, 1 mM ATP, averaged IC50 ranges

Sequence of JAK3 (P52333 whole entry): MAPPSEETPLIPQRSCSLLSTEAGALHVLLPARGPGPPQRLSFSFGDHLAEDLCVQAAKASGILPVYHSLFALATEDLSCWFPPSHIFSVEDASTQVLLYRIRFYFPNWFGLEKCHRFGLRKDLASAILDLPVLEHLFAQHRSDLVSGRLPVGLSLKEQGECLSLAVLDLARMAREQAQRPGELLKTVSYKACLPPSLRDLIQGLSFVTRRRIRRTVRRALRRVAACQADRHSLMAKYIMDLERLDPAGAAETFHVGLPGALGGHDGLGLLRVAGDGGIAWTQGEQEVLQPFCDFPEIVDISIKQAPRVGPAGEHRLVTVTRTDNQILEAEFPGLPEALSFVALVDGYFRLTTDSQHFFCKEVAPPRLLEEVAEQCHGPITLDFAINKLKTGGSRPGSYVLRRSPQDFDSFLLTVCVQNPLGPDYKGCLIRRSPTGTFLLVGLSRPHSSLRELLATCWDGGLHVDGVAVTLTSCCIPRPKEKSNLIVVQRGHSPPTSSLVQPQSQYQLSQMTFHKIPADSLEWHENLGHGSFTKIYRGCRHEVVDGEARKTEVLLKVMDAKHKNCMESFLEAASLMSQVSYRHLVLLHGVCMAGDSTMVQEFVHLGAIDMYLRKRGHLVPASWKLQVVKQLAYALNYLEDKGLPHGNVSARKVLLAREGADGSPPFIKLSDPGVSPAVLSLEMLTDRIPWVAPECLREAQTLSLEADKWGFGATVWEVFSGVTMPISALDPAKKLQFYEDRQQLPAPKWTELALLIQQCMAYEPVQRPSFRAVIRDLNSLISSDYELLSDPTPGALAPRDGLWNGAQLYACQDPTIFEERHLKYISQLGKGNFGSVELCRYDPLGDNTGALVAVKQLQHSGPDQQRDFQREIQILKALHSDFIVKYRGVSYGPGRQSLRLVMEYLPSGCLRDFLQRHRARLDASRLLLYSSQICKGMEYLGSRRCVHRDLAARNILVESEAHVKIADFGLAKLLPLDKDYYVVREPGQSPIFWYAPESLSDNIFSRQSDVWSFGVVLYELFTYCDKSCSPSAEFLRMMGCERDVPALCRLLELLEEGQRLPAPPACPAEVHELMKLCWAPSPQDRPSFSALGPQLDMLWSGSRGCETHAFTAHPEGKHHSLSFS
Sequence of Human Tyk2 kinase domain (P29597 886-1187): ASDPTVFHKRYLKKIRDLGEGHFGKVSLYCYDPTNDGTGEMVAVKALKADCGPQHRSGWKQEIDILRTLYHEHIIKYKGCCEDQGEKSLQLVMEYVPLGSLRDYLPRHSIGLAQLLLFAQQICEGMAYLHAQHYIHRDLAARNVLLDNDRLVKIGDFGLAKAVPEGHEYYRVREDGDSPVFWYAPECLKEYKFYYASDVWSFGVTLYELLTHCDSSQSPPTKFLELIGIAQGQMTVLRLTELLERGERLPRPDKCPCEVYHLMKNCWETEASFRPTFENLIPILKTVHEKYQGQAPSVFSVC
Sequence of JAK1 (P23458 whole entry): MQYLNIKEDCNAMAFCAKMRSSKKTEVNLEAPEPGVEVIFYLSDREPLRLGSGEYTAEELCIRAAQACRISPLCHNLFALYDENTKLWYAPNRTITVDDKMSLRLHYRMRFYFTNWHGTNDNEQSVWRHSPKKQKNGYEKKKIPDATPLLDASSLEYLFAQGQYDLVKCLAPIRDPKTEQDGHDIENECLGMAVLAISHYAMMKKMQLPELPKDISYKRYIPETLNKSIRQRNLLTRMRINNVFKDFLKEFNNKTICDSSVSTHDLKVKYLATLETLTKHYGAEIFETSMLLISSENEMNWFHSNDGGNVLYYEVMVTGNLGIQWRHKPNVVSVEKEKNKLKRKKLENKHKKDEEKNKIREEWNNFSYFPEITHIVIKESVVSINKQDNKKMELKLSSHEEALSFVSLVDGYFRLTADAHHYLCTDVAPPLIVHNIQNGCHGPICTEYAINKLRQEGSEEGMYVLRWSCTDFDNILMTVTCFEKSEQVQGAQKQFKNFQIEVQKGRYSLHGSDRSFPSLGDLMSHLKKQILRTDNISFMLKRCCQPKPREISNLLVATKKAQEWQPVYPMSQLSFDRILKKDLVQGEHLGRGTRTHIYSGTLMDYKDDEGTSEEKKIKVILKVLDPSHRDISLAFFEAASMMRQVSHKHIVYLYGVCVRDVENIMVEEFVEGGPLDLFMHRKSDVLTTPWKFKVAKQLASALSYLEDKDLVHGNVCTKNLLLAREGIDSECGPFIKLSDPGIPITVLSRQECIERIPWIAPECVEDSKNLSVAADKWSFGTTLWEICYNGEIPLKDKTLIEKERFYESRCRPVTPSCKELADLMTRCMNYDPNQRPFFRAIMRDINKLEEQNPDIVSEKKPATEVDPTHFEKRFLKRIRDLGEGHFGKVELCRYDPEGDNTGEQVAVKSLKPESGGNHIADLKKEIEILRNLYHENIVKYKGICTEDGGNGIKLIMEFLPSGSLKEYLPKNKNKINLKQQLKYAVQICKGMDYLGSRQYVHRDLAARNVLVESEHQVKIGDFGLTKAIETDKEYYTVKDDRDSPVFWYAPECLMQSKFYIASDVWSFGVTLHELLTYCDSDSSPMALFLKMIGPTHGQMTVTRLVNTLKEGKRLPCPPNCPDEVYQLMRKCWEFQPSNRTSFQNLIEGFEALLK
Sequence of JAK2 (O60674 whole entry): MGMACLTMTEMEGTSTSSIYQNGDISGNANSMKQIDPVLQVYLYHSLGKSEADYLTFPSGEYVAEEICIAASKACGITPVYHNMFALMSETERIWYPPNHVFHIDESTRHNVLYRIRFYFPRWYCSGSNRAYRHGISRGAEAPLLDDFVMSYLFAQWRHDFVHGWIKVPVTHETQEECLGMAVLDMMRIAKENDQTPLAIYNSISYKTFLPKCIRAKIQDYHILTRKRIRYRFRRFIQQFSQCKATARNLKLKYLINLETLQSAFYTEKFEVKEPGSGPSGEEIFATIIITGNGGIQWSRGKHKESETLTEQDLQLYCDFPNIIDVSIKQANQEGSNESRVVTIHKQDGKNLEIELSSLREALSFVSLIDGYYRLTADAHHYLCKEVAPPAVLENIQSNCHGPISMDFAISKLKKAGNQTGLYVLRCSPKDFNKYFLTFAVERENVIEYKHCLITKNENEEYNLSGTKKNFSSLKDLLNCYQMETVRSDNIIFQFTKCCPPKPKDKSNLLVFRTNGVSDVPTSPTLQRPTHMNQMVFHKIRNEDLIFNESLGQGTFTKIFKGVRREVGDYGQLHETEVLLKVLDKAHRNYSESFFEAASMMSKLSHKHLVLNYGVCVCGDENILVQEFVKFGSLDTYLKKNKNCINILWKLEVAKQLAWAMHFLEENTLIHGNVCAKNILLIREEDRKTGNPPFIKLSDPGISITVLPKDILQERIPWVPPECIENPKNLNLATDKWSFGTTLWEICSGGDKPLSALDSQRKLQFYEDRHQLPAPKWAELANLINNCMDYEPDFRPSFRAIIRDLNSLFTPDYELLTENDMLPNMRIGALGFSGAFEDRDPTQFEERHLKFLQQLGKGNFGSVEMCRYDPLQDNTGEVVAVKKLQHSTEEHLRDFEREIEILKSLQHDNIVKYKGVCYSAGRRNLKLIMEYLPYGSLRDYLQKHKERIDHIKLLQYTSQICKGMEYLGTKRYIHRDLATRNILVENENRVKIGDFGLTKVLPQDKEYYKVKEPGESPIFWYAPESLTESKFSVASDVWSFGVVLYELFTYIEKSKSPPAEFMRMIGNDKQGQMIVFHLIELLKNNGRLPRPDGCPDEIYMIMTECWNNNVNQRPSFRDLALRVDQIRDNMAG

Compound | IC50 (JAK2) [µM] | IC50 (JAK1) [µM] | IC50 (JAK1; [1]) [µM] | IC50 (JAK3) [µM] | IC50 (Human Tyk2 kinase domain) [µM]
CCC(C1CC1)n1cc(-c2nc(-c3cnn(C[C@@H](O)CO)c3)cn3nccc23)cn1 (single isomer, unassigned) [Example 214] | 0.1 to 1 | – | – | – | –
CCC(CC)n1cc(-c2nc(-c3cnn([C@H]4COC[C@@H]4O)c3)cn3nccc23)cn1 (single isomer, unassigned) [Example 160] | – | 1 to 10 | – | – | –
CCC(CC)n1cc(-c2nc(-c3cnn([C@@H](C)CO)c3)cn3nccc23)cn1 [compound 126, (S)-2-(4-(4-(1-(pentan-3-yl)-1H-pyrazol-4-yl)pyrazolo[1,5-a]pyrazin-6-yl)-1H-pyrazol-1-yl)propan-1-ol] | 0.01 to 0.1 | – | 0.1 to 1 | – | –
CCC(CC)n1cc(-c2nc(-c3cnn([C@@H]4COC[C@H]4O)c3)cn3nccc23)cn1 (single isomer, unassigned) [Example 159] | – | 0.1 to 1 | – | – | –
CCC(CC)n1cc(-c2nc(-c3cnn(C[C@@H]4CCCN4)c3)cn3nccc23)cn1 [Example 28, (S)-4-(1-(pentan-3-yl)-1H-pyrazol-4-yl)-6-(1-(pyrrolidin-2-ylmethyl)-1H-pyrazol-4-yl)pyrazolo[1,5-a]pyrazine] | – | 1 to 10 | – | 1 to 10 | –
CCC1(n2cc(-c3nc(-c4cnn(C)c4)cn4nccc34)cn2)CN(S(=O)(=O)C(F)(F)F)C1 [Example 48, 4-(1-(3-ethyl-1-((trifluoromethyl)sulfonyl)azetidin-3-yl)-1H-pyrazol-4-yl)-6-(1-methyl-1H-pyrazol-4-yl)pyrazolo[1,5-a]pyrazine] | – | 0.01 to 0.1 | – | 1 to 10 | –
CCC(C1CC1)n1cc(-c2nc(-c3cnn(C[C@@H](O)CO)c3)cn3nccc23)cn1 (single isomer, unassigned) [Example 213] | – | 0.1 to 1 | – | 1 to 10 | 0.01 to 0.1
CCC(CC)n1cc(-c2nc(-c3cnn(CCS(N)(=O)=O)c3)cn3nccc23)cn1 [Example 24, 2-(4-(4-(1-(pentan-3-yl)-1H-pyrazol-4-yl)pyrazolo[1,5-a]pyrazin-6-yl)-1H-pyrazol-1-yl)ethanesulfonamide] | – | 0.1 to 1 | – | 1 to 10 | –
CC(C)[C@H](C)n1cc(-c2nc(-c3cnn(C[C@@H](O)CO)c3)cn3nccc23)cn1 [Example 80, (R)-3-(4-(4-(1-((S)-3-methylbutan-2-yl)-1H-pyrazol-4-yl)pyrazolo[1,5-a]pyrazin-6-yl)-1H-pyrazol-1-yl)propane-1,2-diol] | – | – | – | 1 to 10 | –
CCC(CC)n1cc(-c2nc(-c3cnn([C@H]4C[C@H](C(=O)NCCO)C4)c3)cn3nccc23)cn1 [Example 171, (1r,3r)-N-(2-hydroxyethyl)-3-(4-(4-(1-(pentan-3-yl)-1H-pyrazol-4-yl)pyrazolo[1,5-a]pyrazin-6-yl)-1H-pyrazol-1-yl)cyclobutanecarboxamide] | – | – | – | 1 to 10 | –
CCC(CC)n1cc(-c2nc(-c3cnn(CC(CO)CO)c3)cn3nccc23)cn1 [Example 61, 2-((4-(4-(1-(pentan-3-yl)-1H-pyrazol-4-yl)pyrazolo[l,5-a]pyrazin-6-yl)-1H-pyrazol-1-yl)methyl)propane-1,3-diol] | – | – | 0.1 to 1 | 1 to 10 | –
CC[C@H]([C@@H]1CC1(F)F)n1cc(-c2nc(-c3cnn(C[C@@H](O)CO)c3)cn3nccc23)cn1 [Example 204, (R)-3-(4-(4-(1-((R)-1-((S)-2,2-difluorocyclopropyl)propyl)-1H-pyrazol-4-yl)pyrazolo[1,5-a]pyrazin-6-yl)-1H-pyrazol-1-yl)propane-1,2-diol] | – | – | – | 1 to 10 | –
CC[C@@H](C)n1cc(-c2nc(-c3cnn(C(CO)CO)c3)cn3nccc23)cn1 [Example 85, (R)-2-(4-(4-(1-(sec-butyl)-1H-pyrazol-4-yl)pyrazolo[1,5-a]pyrazin-6-yl)-1H-pyrazol-1-yl)propane-1,3-diol] | – | 1 to 10 | – | 1 to 10 | 0.1 to 1
CCC(CC)n1cc(-c2nc(-c3cnn(C4CCN(C(=O)CN)CC4)c3)cn3nccc23)cn1 [Example 36, 2-amino-1-(4-(4-(4-(1-(pentan-3-yl)-1H-pyrazol-4-yl)pyrazolo[1,5-a]pyrazin-6-yl)-1H-pyrazol-1-yl)piperidin-1-yl)ethanone] | – | 0.1 to 1 | – | 1 to 10 | –
CCC(CC)n1cc(-c2nc(-c3cnn(C4CN(C(C)=O)C4)c3)cn3nccc23)cn1 [Example 38, 1-(3-(4-(4-(1-(pentan-3-yl)-1H-pyrazol-4-yl)pyrazolo[1,5-a]pyrazin-6-yl)-1H-pyrazol-1-yl)azetidin-1-yl)ethanone] | – | 0.1 to 1 | – | 1 to 10 | –
CCC(CC)n1cc(-c2nc(-c3cnn(C4CCN(C(C)=O)CC4)c3)cn3nccc23)cn1 [Example 31, 1-(4-(4-(4-(1-(pentan-3-yl)-1H-pyrazol-4-yl)pyrazolo[1,5-a]pyrazin-6-yl)-1H-pyrazol-1-yl)piperidin-1-yl)ethanone] | – | 0.1 to 1 | – | 1 to 10 | 0.01 to 0.1
CCC(CC)n1cc(-c2nc(-c3cnn(C4CCN(C(=O)COC)CC4)c3)cn3nccc23)cn1 [Example 33, 2-methoxy-1-(4-(4-(4-(1-(pentan-3-yl)-1H-pyrazol-4-yl)pyrazolo[1,5-a]pyrazin-6-yl)-1H-pyrazol-1-yl)piperidin-1-yl)ethanone] | – | 0.1 to 1 | – | 1 to 10 | –
CCC(CC)n1cc(-c2nc(-c3cnn(CC4CNC(=O)O4)c3)cn3nccc23)cn1 (centres unmarked) [Example 8, 5-((4-(4-(1-(pentan-3-yl)-1H-pyrazol-4-yl)pyrazolo[1,5-a]pyrazin-6-yl)-1H-pyrazol-1-yl)methyl)oxazolidin-2-one] | – | – | – | 1 to 10 | –
CCC(CC)n1cc(-c2nc(-c3cnn(C4CCN(S(C)(=O)=O)CC4)c3)cn3nccc23)cn1 [Example 32, 6-(1-(1-(methylsulfonyl)piperidin-4-yl)-1H-pyrazol-4-yl)-4-(1-(pentan-3-yl)-1H-pyrazol-4-yl)pyrazolo[1,5-a]pyrazine] | – | 0.01 to 0.1 | – | 1 to 10 | –
CCC(CC)n1cc(-c2nc(-c3cnn(C4CS(=O)(=O)C4)c3)cn3nccc23)cn1 [Example 13, 3-(4-(4-(1-(pentan-3-yl)-1H-pyrazol-4-yl)pyrazolo[1,5-a]pyrazin-6-yl)-1H-pyrazol-1-yl)thietane 1,1-dioxide] | – | 0.1 to 1 | – | 1 to 10 | 0.01 to 0.1
CCC(CC)n1cc(-c2nc(-c3cnn(C4CN(S(C)(=O)=O)C4)c3)cn3nccc23)cn1 [Example 37, 6-(1-(1-(methylsulfonyl)azetidin-3-yl)-1H-pyrazol-4-yl)-4-(1-(pentan-3-yl)-1H-pyrazol-4-yl)pyrazolo[1,5-a]pyrazine] | – | 0.1 to 1 | – | 1 to 10 | 0.01 to 0.1
CC1(C)CCC[C@@H]1n1cc(-c2nc(-c3cnn(C[C@@H](O)CO)c3)cn3nccc23)cn1 [Example 95, (R)-3-(4-(4-(1-((S)-2,2-dimethylcyclopentyl)-1H-pyrazol-4-yl)pyrazolo[1,5-a]pyrazin-6-yl)-1H-pyrazol-1-yl)propane-1,2-diol] | – | – | 1 to 10 | – | 1 to 10
CCC(CC)n1cc(-c2nc(-c3cnn(C[C@H]4CCCN4)c3)cn3nccc23)cn1 [Example 27, (R)-4-(1-(pentan-3-yl)-1H-pyrazol-4-yl)-6-(1-(pyrrolidin-2-ylmethyl)-1H-pyrazol-4-yl)pyrazolo[1,5-a]pyrazine] | – | 1 to 10 | – | 1 to 10 | –
CCC(CC)n1cc(-c2nc(-c3cnn(C4CCN(C(=O)NC)CC4)c3)cn3nccc23)cn1 [Example 34, N-methyl-4-(4-(4-(1-(pentan-3-yl)-1H-pyrazol-4-yl)pyrazolo[1,5-a]pyrazin-6-yl)-1H-pyrazol-1-yl)piperidine-1-carboxamide] | – | 0.01 to 0.1 | – | 1 to 10 | 0.01 to 0.1
